Experimental data taken from publication PMC9456425, “Aminopeptidase N Inhibitors as Pointers for Overcoming Antitumor Treatment Resistance” (International Journal of Molecular Sciences, 2022).
Read-outs that look alike come from different tables or passages of the source. Blank lines part the entries; values can stand above or below the molecule they belong to.

What was measured:
[1] = target: T1, APN (Microsomal Leucine aminopeptidase from porcine kidney EC 3.4.11.2) (Sus scrofa, UniProt P15145); assay: APN inhibitory activity, spectrophotometry with L-leucine-p-nitroanilide; assay type: biochemical
T1 construct: Microsomal Leucine aminopeptidase from porcine kidney EC 3.4.11.2, Type IV-S, ammonium sulfate suspension; purchased Sigma-Aldrich; host or cells: porcine kidney (tissue-derived, microsomal)
T1 sequence (P15145 1-963): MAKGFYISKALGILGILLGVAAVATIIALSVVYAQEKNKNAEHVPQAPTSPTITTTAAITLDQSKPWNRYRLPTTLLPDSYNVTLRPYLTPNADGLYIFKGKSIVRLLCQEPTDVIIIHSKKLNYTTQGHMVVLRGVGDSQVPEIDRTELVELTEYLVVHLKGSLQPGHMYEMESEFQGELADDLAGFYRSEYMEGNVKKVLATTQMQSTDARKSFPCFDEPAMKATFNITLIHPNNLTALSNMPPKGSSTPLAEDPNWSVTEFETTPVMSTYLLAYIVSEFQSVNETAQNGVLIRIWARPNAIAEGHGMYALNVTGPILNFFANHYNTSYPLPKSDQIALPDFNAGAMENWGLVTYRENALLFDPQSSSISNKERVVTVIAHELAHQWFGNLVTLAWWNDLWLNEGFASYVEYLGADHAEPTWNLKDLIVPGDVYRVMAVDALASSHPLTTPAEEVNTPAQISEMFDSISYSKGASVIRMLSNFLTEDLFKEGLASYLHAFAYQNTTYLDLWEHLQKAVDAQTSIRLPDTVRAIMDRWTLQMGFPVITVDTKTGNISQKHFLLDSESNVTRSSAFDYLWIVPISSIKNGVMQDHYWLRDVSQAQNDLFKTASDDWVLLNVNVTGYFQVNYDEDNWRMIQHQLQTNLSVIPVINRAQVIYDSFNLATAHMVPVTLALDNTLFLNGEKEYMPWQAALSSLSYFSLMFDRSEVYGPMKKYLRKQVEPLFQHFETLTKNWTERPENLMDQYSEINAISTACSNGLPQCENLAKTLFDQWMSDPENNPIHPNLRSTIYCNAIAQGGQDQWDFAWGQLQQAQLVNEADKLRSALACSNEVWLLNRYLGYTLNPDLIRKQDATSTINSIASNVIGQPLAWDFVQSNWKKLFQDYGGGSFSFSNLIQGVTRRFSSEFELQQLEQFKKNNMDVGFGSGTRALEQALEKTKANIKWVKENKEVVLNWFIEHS
Procedure: APN inhibitory activity was determined using a standardized spectrophotometry protocol using L-leucine-p-nitroanilide as a chromogenic substrate for APN. Measurements were performed in triplicate at 405 nm at a Cytation 3 well-plate reader.
In some compounds, solubility problems occurred, which complicated the inhibition activity determination. We overcame these either by the use of cosolvents or by an alternative HPLC approach. The details are summarized in the Supplementary Materials.
IC50 values against enzyme APN were determined using L-Leucine-p-nitroanilide (Sigma-Aldrich, Darmstadt, Germany) as the substrate and Microsomal Leucine aminopeptidase from porcine kidney EC 3.4.11.2, Type IV-S, ammonium sulfate suspension, 10–40 units/mg protein (Sigma-Aldrich, Darmstadt, Germany). The assay was performed by a Cytation 3 Cell Imaging Multi-Mode Reader (BioTek Instruments, Inc., Winooski, VT, USA) with appropriate Gen-5 software in 96-well plates. A 0.02 mol/L TRIS-HCl buffer solution at pH 7.5 was used as the assay buffer. All tested compounds were dissolved in TRIS-HCl buffer solution and compounds with poor solubility were dissolved in a small amount of DMSO or NMP used as a cosolvent. The assay mixture, which contained a variable amount of inhibitor solution (from 0 up to 80 μL), 10 μL of the enzyme solution, 5 μL of the substrate solution, and the assay buffer adjusted to 200 μL, was incubated at 37 °C for 40 min with short orbital shaking for 10 s. The hydrolysis of the substrate was monitored by the optical photometric method of absorbance in the visible and ultraviolet regions at a wavelength of 405 nm. The enzyme activity inhibitory rate was calculated from the measures of absorbance. The results of the 50% inhibitory activity of the enzyme (IC50) were determined through a regression analysis of the concentration/absorbance data by GraFit 5 software (Erithacus Software Ltd., East Grinstead, UK).

DU-145 cells = assay: WST-1 analysis of cell proliferation, DU-145; assay type: cell-based, human; conditions: for Proliferation of control: 48 h
Procedure: (§1) The results are shown in Table 4, Figure 2, and the Supplementary Materials.
(§2) A human monocytic leukemia cell line (THP-1), human breast adenocarcinoma cells (MCF-7), and human prostate cancer (DU-145) cell line were obtained from ATCC. THP-1 and DU-145 cells were cultivated in an RPMI 1640 culture medium and MCF-7 cells were cultivated in a DMEM medium, both supplemented with the antibiotic solution (100 U/mL of penicillin, 100 µg/mL of streptomycin) and 10% FBS. Cells were maintained in a humidified incubator with 5% CO2 at 37 °C and were regularly tested for the presence of mycoplasma contamination.
(§3) THP-1, MCF-7, and DU-145 cells were seeded in 96-well plates. Adherent cell lines were allowed to attach to the wells for 24 h. Cells were then treated with various concentrations of tested compounds to reach the final concentrations ranging between 1 µM and 100 µM and were incubated for 48 h. Cell proliferation was determined using Cell Proliferation Reagent WST-1 (2-(4-iodophenyl)-3-(4-nitrophenyl)-5-(2,4-disulfophenyl)-2H-tetrazolium) (Roche Diagnostics, Mannheim, Germany), as previously described. WST-1 analysis was performed in three independent experiments, with each condition tested in triplicate. The IC50 values were determined using the nonlinear regression four-parameter logistic model using GraphPad Prism 5.00 software (GraphPad Software, San Diego, CA, USA). Statistical significance between the values was assessed by one-way analysis of variance (ANOVA) paired with Dunnett’s post hoc test using GraphPad Prism 5.00 software (GraphPad Software, San Diego, CA, USA) at levels of * p < 0.05, ** p < 0.01, and *** p < 0.001.

MCF-7 cells = assay: WST-1 analysis of cell proliferation, MCF-7; assay type: cell-based, human; conditions: for Proliferation of control: 48 h
Procedure: as §1, §2, §3

THP-1 cells = assay: WST-1 analysis of cell proliferation, THP-1; assay type: cell-based, human; conditions: for Proliferation of control: 48 h
Procedure: as §1, §2, §3

[2] = DMSO as a cosolvent, read-out: IC50 Experimental
[3] = logarithm of IC50 in µmol/L, read-out: Log IC50 Experimental (converted)
[4] = TRIS-HCl buffer pH 7.5, 37 °C, 40 min, no cosolvent noted, read-out: IC50 Experimental
[5] = NMP as a cosolvent, read-out: IC50 Experimental

SMILES: CC(=O)c1ccc(NC(=O)CN2CCCCC2)cc1 [14-6-1]
- IC50 [1, 4]: 173 µM

SMILES: CC(=O)c1ccc(NC(=O)CN2CCOCC2)cc1 [14-8-1]
- IC50 [1, 4]: 425 µM

SMILES: CC(=O)c1ccc(NC(=O)CN2CCN(Cc3ccccc3)CC2)cc1 [14-10-1]
- IC50 [1, 2]: 427 µM

SMILES: CC(=NNC(N)=S)c1ccccc1NC(=O)CN1CCCCCC1 [22-7-1]
- IC50 [1, 4]: 169 µM
- IC50 [1, 3]: 169 µM

SMILES: CCCN(CCC)CC(=O)Nc1ccc(C(C)=NNC(N)=S)cc1 [24-3-1]
- IC50 [1, 4]: 1270 µM
- IC50 [1, 3]: 1270 µM

SMILES: CC(=NNC(N)=S)c1ccc(NC(=O)CN2CCCC2)cc1 [24-5-1]
- IC50 [1, 5]: 35.6 µM
- IC50 [1, 3]: 35.6 µM

SMILES: CC(=NNC(N)=O)c1ccc(NC(=O)CN2CCCCC2)cc1 [34-6-1, 4-[2-(piperidine-1-yl)acetamido]acetophenone semicarbazone]
- IC50 [1, 4]: 18.4 µM
- IC50 [1, 3]: 18.4 µM
- Proliferation of control (DU-145 cells; DU-145, 1 μmol/l): 98.33%
- Proliferation of control (DU-145 cells; DU-145, 5 μmol/l): 98.26%
- Proliferation of control (DU-145 cells; DU-145, 10 μmol/l): 97.24%
- Proliferation of control (DU-145 cells; DU-145, 30 μmol/l): 97.25%
- Proliferation of control (DU-145 cells; DU-145, 50 μmol/l): 96.59%
- Proliferation of control (DU-145 cells; DU-145, 75 μmol/l): 99.61%
- Proliferation of control (DU-145 cells; DU-145, 100 μmol/l): 99.25%
- antiproliferative effect (in words) (DU-145 cells; DU-145, no APN expression): did not affect proliferation at all
- IC50 (DU-145 cells; Homo sapiens, DU-145, 48 h incubation): > 100 µM
- IC50 (MCF-7 cells; Homo sapiens, MCF7, MCF-7, 48 h incubation): > 100 µM
- Proliferation of control (MCF-7 cells; MCF-7, 1 μmol/l): 100.09%
- Proliferation of control (MCF-7 cells; MCF-7, 5 μmol/l): 96.80%
- Proliferation of control (MCF-7 cells; MCF-7, 10 μmol/l): 97.62%
- Proliferation of control (MCF-7 cells; MCF-7, 30 μmol/l): 96.30%
- Proliferation of control (MCF-7 cells; MCF-7, 50 μmol/l): 99.57%
- Proliferation of control (MCF-7 cells; MCF-7, 75 μmol/l): 85.41%
- Proliferation of control (MCF-7 cells; MCF-7, 100 μmol/l): 81.17%
- IC50 (THP-1 cells; Homo sapiens, THP-1, 48 h incubation): > 100 µM
- Proliferation of control (THP-1 cells; THP-1, 1 μmol/l): 97.78%
- Proliferation of control (THP-1 cells; THP-1, 5 μmol/l): 97.58%
- Proliferation of control (THP-1 cells; THP-1, 10 μmol/l): 93.87%
- Proliferation of control (THP-1 cells; THP-1, 30 μmol/l): 86.64%
- Proliferation of control (THP-1 cells; THP-1, 50 μmol/l): 73.78%
- Proliferation of control (THP-1 cells; THP-1, 75 μmol/l): 71.38%
- Proliferation of control (THP-1 cells; THP-1, 100 μmol/l): 69.17%

Further lines, results first:

- IC50 [1, 2]: 366 µM
- IC50 [1, 3]: 366 µM
SMILES: CCN(CC)CC(=O)Nc1ccc(C(C)=O)cc1 [14-2-1]

- IC50 [1, 4]: 778 µM
SMILES: CC(=NNC(N)=S)c1ccccc1NC(=O)CN1CCCCC1 [22-6-1]

- IC50 [1, 5]: 1680 µM
- IC50 [1, 3]: 1680 µM
SMILES: CCCCN(CCCC)CC(=O)Nc1ccc(C(C)=NNC(N)=S)cc1 [24-4-1]

- IC50 [1, 5]: 1550 µM
- IC50 [1, 3]: 1550 µM
SMILES: CC(=NNC(N)=S)c1ccc(NC(=O)CN2CCCCC2)cc1 [24-6-1]

- IC50 [1, 4]: 44.1 µM
- IC50 [1, 3]: 44.1 µM
SMILES: CC(=NNC(N)=S)c1ccc(NC(=O)CN2CCCCCC2)cc1 [24-7-1]

- IC50 [1, 3]: 6.79 µM
SMILES: CC(=NNC(N)=S)c1ccc(NC(=O)CN2CCOCC2)cc1 [24-8-1, 4-[(morpholine-4-yl)acetamido]acetophenone thiosemicarbazone]

- IC50 [1, 4]: 1640 µM
- IC50 [1, 3]: 1640 µM
- melting point: 231.1 to 231.8 °C
SMILES: CC(=NNC(N)=O)c1ccc(NC(=O)CN2CCOCC2)cc1 [34-8-1]
